This is an account of results in US11155557B2, “Pyrazolopyrimidine compounds and methods of use thereof” (Genentech, Inc., priority 2016, dated 2021).

Where two headings read alike, the source gives them in different places.

Assay [1] concerns the target isolated recombinant JAK1 kinase domain (Homo sapiens (Human), UniProt P23458). Kind of assay: JAK1 enzyme assay (Caliper LabChip, Ki). Type of assay: biochemical. The procedure: The activity of the isolated recombinant JAK1 and JAK2 kinase domain was measured by monitoring phosphorylation of a peptide derived from JAK3 ([…] fluorescently labeled on the N-terminus with 5-carboxyfluorescein) using the Caliper LabChip R technology (Caliper Life Sciences, Hopkinton, Mass.).

The test system of assay [2] is JAK1-dependent STAT6 phosphorylation in BEAS-2B human bronchial epithelial cells. Kind of assay: JAK1 pathway assay: IL-13 stimulated STAT6 phosphorylation in BEAS-2B cells. The note with it: BEAS-2B cells, IL-13 stimulation, read-out: IL-13 p-STAT6 BEAS-2B IC50. Type of assay: cell-based. Summed up: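 BEAS-2B bronchial epithelial cells plated one day before, run in complete growth medium. Phospho-STAT6 in lysates measured by MesoScale Discovery; EC50 reported.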

For assay [3], the target named is isolated recombinant JAK2 kinase domain (Homo sapiens (Human), UniProt O60674). Kind of assay: JAK2 enzyme assay (Caliper LabChip, Ki). Particulars: read-out: JAK2 Ki.
Chain of isolated recombinant JAK2 kinase domain (O60674 849-1124): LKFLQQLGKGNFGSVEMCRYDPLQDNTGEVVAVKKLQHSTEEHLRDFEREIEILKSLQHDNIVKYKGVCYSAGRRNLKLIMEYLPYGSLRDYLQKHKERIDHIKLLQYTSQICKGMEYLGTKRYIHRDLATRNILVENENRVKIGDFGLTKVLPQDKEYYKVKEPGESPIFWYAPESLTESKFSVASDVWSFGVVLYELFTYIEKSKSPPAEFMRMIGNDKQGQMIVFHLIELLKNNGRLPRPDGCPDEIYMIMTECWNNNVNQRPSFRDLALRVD

Chain of isolated recombinant JAK1 kinase domain (P23458 875-1153): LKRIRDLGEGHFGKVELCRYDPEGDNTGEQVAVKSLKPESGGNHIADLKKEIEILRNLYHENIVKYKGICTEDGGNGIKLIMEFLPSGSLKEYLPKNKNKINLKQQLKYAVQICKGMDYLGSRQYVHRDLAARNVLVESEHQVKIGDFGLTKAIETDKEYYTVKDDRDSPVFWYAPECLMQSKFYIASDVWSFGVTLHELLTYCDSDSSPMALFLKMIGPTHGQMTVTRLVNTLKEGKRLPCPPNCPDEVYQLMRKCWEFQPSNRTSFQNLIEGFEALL

For the compound `COc1cc2c(cc1-c1n[nH]cc1NC(=O)c1cnn3cccnc13)CCC2` [Example 27, N-[3-(6-methoxyindan-5-yl)-1H-pyrazol-4-yl]pyrazolo[1,5-a]pyrimidine-3-carboxamide], the values for the inhibition constant Ki in assay [1] and in assay [3] were 0.89 nM and 0.34 nM, respectively. For the same compound, in assay [2] (Homo sapiens, BEAS-2B), the IC50 stood at 6 nM.

Consider `COc1cc2cnccc2cc1-c1n[nH]cc1NC(=O)c1cnn2cccnc12` [Example 29, N-[3-(7-methoxy-6-isoquinolyl)-1H-pyrazol-4-yl]pyrazolo[1,5-a]pyrimidine-3-carboxamide], for which the Ki was found to be 0.84 nM in assay [1] and 0.49 nM in assay [3]. In addition, in assay [2] (Homo sapiens, BEAS-2B), the IC50 amounted to 85 nM.

As for `COc1cc2[nH]ncc2cc1-c1n[nH]cc1NC(=O)c1cnn2cccnc12` [Example 30, N-[3-(6-methoxy-1H-indazol-5-yl)-1H-pyrazol-4-yl]pyrazolo[1,5-a]pyrimidine-3-carboxamide], the inhibition constant (Ki) in assay [1] was 0.3 nM; in assay [3], 0.2 nM. The 50% inhibitory concentration (IC50) in assay [2] was 369 nM.

With `COc1cc2[nH]cnc2cc1-c1n[nH]cc1NC(=O)c1cnn2cccnc12` [Example 31, N-[3-(6-methoxy-1H-benzimidazol-5-yl)-1H-pyrazol-4-yl]pyrazolo[1,5-a]pyrimidine-3-carboxamide], the inhibition constant (Ki) in assay [1] is 2.09 nM; in assay [3], 0.9 nM. Besides, in assay [2] (Homo sapiens, BEAS-2B), the half-maximal inhibitory concentration (IC50) came out at 6910 nM.

Turning to `COc1cc2cnsc2cc1-c1n[nH]cc1NC(=O)c1cnn2cccnc12` [Example 32, N-[3-(5-methoxy-1,2-benzothiazol-6-yl)-1H-pyrazol-4-yl]pyrazolo[1,5-a]pyrimidine-3-carboxamide], the Ki in assay [1] turned out to be 0.16 nM; in assay [3], 0.11 nM. Moreover, the IC50 in assay [2] (Homo sapiens, BEAS-2B) was 2 nM.

For `COc1cc2sncc2cc1-c1n[nH]cc1NC(=O)c1cnn2cccnc12` [Example 33, N-[3-(6-methoxy-1,2-benzothiazol-5-yl)-1H-pyrazol-4-yl]pyrazolo[1,5-a]pyrimidine-3-carboxamide], the results for the Ki in assay [1] and in assay [3] were 0.91 nM and 0.4 nM, respectively. Further, the half-inhibitory concentration (IC50) in assay [2] (Homo sapiens, BEAS-2B) came to 21 nM.

Consider `COc1cc2sccc2cc1-c1[nH]ncc1NC(=O)c1cnn2cccnc12` [Example 34, N-[5-(6-methoxybenzothiophen-5-yl)-1H-pyrazol-4-yl]pyrazolo[1,5-a]pyrimidine-3-carboxamide], for which the inhibition constant Ki came out at 0.6 nM in assay [1] and 0.19 nM in assay [3]. Also, the half-maximal inhibitory concentration (IC50) in assay [2] (Homo sapiens, BEAS-2B) was 10 nM.

On to `COc1cc2ccsc2cc1-c1n[nH]cc1NC(=O)c1cnn2cccnc12` [Example 35, N-[3-(5-methoxybenzothiophen-6-yl)-1H-pyrazol-4-yl]pyrazolo[1,5-a]pyrimidine-3-carboxamide], for which the Ki was found to be 0.28 nM in assay [1] and 0.11 nM in assay [3]. Besides, in assay [2] (Homo sapiens, BEAS-2B), the IC50 was 3 nM.

For the compound `CCOC(=O)c1cc2cc(-c3n[nH]cc3NC(=O)c3cnn4cccnc34)c(OC)cc2s1` [Example 36, ethyl 6-methoxy-5-[4-(pyrazolo[1,5-a]pyrimidine-3-carbonylamino)-1H-pyrazol-3-yl]benzothiophene-2-carboxylate], the Ki in assay [1] was 0.65 nM; in assay [3], 0.49 nM. Besides, the IC50 in assay [2] (Homo sapiens, BEAS-2B) was 32 nM.

In the case of `CC1CNc2cc(OC(F)F)c(-c3n[nH]cc3NC(=O)c3cnn4cccnc34)cc2S1` (stereo not drawn) [Example 37, N-[3-[6-(difluoromethoxy)-2-methyl-3,4-dihydro-2H-1,4-benzothiazin-7-yl]-1H-pyrazol-4-yl]pyrazolo[1,5-a]pyrimidine-3-carboxamide], the Ki in assay [1] was 0.07 nM; in assay [3], 0.05 nM. Also, the half-inhibitory concentration (IC50) in assay [2] (Homo sapiens, BEAS-2B) worked out at 5 nM.

`CC1Sc2cc(-c3n[nH]cc3NC(=O)c3cnn4cccnc34)c(OC(F)F)cc2NC1=O` (stereo not drawn) [Example 39, N-[3-[6-(difluoromethoxy)-2-methyl-3-oxo-4H-1,4-benzothiazin-7-yl]-1H-pyrazol-4-yl]pyrazolo[1,5-a]pyrimidine-3-carboxamide]: the inhibition constant Ki turned out to be 0.06 nM in assay [1] and 0.05 nM in assay [3]. Also, in assay [2] (Homo sapiens, BEAS-2B), the IC50 came to 71 nM.

Usually Ki stands for a measure of affinity in units of concentration, obtained from inhibition or displacement. For orientation: IC50 means the concentration that gives 50% inhibition.
